# Experimental data as given in patent US8945879B2, “Methods for recombinant expression of a polypeptide comprising a carbohydrate binding module using a host cell having reduced expression of a protease” (priority 2007, dated 2015).
# Numbered stars: 1 amine (or outer) side, 2 acyl side, 3 side chain; on linkers, the order of the positions; unused ones are H or OH. Square brackets hold non-standard residues; d marks the D form. Peptide text beside a SMILES is read from it. * marks the point of attachment. Sta = CC(C)C[C@H](N)[C@@H](O)CC(=O)O; AMC = Cc1cc(=O)oc2cc(N*)ccc12; Suc = O=C(CCC(=O)[*:2])[*:1]; Isovaleryl = CC(C)CC(=O)*; code Z = not defined here; Boc = CC(C)(C)OC(=O)*
# B1: 19 kDa protease: Aspergillus niger 19 kDa protease (SEQ ID NO: 5) expressed intracellularly in A. oryzae, pooled gel permeation fractions (protein)
# chain: MSPIPSYSRPGRGQHFQDAYGFAEACIAGDRMEIAGQTGMSPTSTEVPPTLEEEVAQAFNNINEVILYTLEKAKPDLRASVKSGWDRVVKIRTYHVQLPQTREKIIGLMVENVKKWCPDHQPTWTMLGIEALPFEGQNLEIEVDVFLG
# modifications: Aspergillus niger
# Tested on: not listed separately
# Assay: pH profile of the 19 kDa protease
# Format: biochemical, Aspergillus niger
# Conditions: phosphate buffer pH 6, 7, 8 and diethanolamine buffer pH 8, 9, 10; 0.04 mM Suc-LLVY-MCA
# Experimental: (§1) Five synthetic substrates were purchased from Peptide Institute Co., Osaka. The substrates are Glt-AAF-MCA, Suc-LLVY-MCA, Boc-FSR-MCA, Suc(OMe)-AAPV-MCA, and Z-LLE-MCA. 25 μl of 0.04 mM substrates were preincubated at 37° C. for 5 min. 20 μl of protease sample were mixed with 25 μl of 400 mM phosphate buffer, pH 6.7, 5 μl of 2 M NaCl, and 25 μl of Milli Q water, and then preincubated at 37° C. for 5 min. The reactions were started by mixing the substrate solutions and the enzyme solutions. Increases of fluorescent strength were measured by FL600 Microplate Fluorescence Reader with 360 nm excitation and 460 nm emission filters at 37° C. for 30 min.
# Phosphate buffer pH6, 7, 8, and Diethanolamine buffer pH 8, 9, 10 were used. The substrate solution was 0.04 mM Suc-LLVY-MCA. The enzyme solution contains 5 μl of 19 kDa protease, 25 μl of buffer, 5 μl of 2 M NaCl and 40 μl of Milli Q water. Assay was performed as described before. The 19 kDa protease is an alkaline protease with the pH optimum 8-9.
row,Molecule,pH optimum
1,B1,8-9

# Tested on: 19 kDa protease
# Assay: Substrate specificity of the 19 kDa protease (fluorogenic MCA substrates)
# Format: biochemical, Aspergillus niger
# Conditions: 0.04 mM substrate solution, phosphate buffer pH 6.7, 37° C., 30 min, fluorescence 360/460 nm; Suc-LLVY-MCA = 100%
# Experimental: as §1
row,Molecule,Substrate specificity (relative activity on substrate)
1,"Suc(OMe)-AAPV-MCA ({Suc(OMe)}-AAPV-{AMC}) [synthetic substrate purchased from Peptide Institute Co., Osaka]",0.2%
2,"Suc-LLVY-MCA (Suc-LLVY-{AMC}) [synthetic substrate purchased from Peptide Institute Co., Osaka]",100.0%
3,"Z-LLE-MCA ({code Z}-Leu-Leu-Glu-{AMC}; reading uncertain; also: printed as Z-LLE-MCA) [synthetic substrate purchased from Peptide Institute Co., Osaka]",0.1%
4,"Boc-FSR-MCA (Boc-Phe-Ser-Arg-{AMC}) [synthetic substrate purchased from Peptide Institute Co., Osaka]",0.3%
5,"Glt-AAF-MCA (Glt-Ala-Ala-Phe-{AMC}) [synthetic substrate purchased from Peptide Institute Co., Osaka]",1.6%

# Same assay, conditions: five synthetic substrates compared, pH 6.7, 37° C.
row,Molecule,substrate ranking (in words)
1,"Suc-LLVY-MCA (Suc-LLVY-{AMC}) [synthetic substrate purchased from Peptide Institute Co., Osaka]",best substrate

# Tested on: 19 kDa protease
# Assay: Effects of inhibitors on the 19 kDa protease (Suc-LLVY-MCA hydrolysis)
# Format: biochemical, Aspergillus niger
# Conditions: substrate 0.04 mM Suc-LLVY-MCA, KPB pH 6.7, 37° C.; 10 μl inhibitor stock (10 mM AEBSF, ZnSO4, EDTA; leupeptin 4.5 mg/10 ml and pepstatin A 3 mg/10 ml in DMSO diluted 10 times)
# Experimental: as §1
# 4-(2-aminoethyl)-benzenesulfonyl fluoride (AEBSF), leupeptin, pepstatin A, ZnSO4, and EDTA were purchased from Wako Chemical Co., Osaka. The inhibitors were 4.5 mg/10 ml leupeptin in DMSO diluted 10 times by Milli Q water, 3 mg/10 ml pepstatin A in DMSO diluted 10 times by Milli-Q water, 10 mM AEBSF, 10 mM ZnSO4, and 10 mM EDTA. The substrate was 0.04 mM Suc-LLVY-MCA. Enzyme solution contains 5 μl of pooled 19 kDa protease fraction, 10 μl of inhibitors, 25 μl of 400 mM KPB, pH 6.7, and 35 μl of Milli-Q water. The substrate solution and the enzyme solutions were preincubated separately at 37° C. for 5 min. The activities were measured as described above.
row,Molecule,residual activity (%)
1,"CC(C)CC(=O)N[C@H](C(=O)N[C@H](C(=O)N[C@@H](CC(C)C)[C@@H](O)CC(=O)N[C@@H](C)C(=O)N[C@@H](CC(C)C)[C@@H](O)CC(=O)O)C(C)C)C(C)C [Pepstatin, pepstatin A] (Isovaleryl-VV[Sta]A[Sta]-OH)",91%
2,O=S(=O)([O-])[O-].[Zn+2] [ZnSO4],99%
3,"NCCc1ccc(S(=O)(=O)F)cc1 [AEBSF, 4-(2-aminoethyl)-benzenesulfonyl fluoride]",100%
4,"CC(=O)N[C@@H](CC(C)C)C(=O)N[C@@H](CC(C)C)C(=O)N[C@H](C=O)CCCNC(=N)N [Leupeptin, leupeptin]",89%
5,O=C(O)CN(CCN(CC(=O)O)CC(=O)O)CC(=O)O [EDTA],101%
